Test results: ChEMBL document CHEMBL1144481, “Cholinesterase inhibitors: SAR and enzyme inhibitory activity of 3-[omega-(benzylmethylamino)alkoxy]xanthen-9-ones” (Bioorg Med Chem, 2007)

Key:
Acetylcholinesterase = Acetylcholinesterase (Homo sapiens, UniProt P22303); assay: Inhibition of human erythrocyte AchE
Cholinesterase = Cholinesterase (Homo sapiens, UniProt P06276); assay: Inhibition of human serum BuChE
Homo sapiens [1] = organism: Homo sapiens; assay: Ratio of IC50 for BuChE to IC50 for AchE
Homo sapiens [2] = organism: Homo sapiens; assay: Ratio of IC50 for AchE to IC50 for BuChE

Sequence of Acetylcholinesterase (P22303 whole entry): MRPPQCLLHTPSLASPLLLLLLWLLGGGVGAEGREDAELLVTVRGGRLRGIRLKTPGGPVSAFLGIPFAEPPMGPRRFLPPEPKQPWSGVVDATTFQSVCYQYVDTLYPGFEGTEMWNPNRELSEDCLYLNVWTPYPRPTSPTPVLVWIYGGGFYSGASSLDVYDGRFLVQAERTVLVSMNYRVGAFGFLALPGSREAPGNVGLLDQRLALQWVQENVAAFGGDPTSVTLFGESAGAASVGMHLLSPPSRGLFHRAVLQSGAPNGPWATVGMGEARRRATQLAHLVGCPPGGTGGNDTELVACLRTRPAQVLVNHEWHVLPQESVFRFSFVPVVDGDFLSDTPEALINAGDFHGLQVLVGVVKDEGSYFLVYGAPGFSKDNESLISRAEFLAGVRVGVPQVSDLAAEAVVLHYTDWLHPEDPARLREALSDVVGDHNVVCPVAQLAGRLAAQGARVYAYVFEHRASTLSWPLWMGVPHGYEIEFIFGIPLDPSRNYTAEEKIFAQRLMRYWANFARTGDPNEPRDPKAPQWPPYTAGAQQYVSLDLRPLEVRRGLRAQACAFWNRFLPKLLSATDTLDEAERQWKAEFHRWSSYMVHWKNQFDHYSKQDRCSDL
Sequence of Cholinesterase (P06276 whole entry): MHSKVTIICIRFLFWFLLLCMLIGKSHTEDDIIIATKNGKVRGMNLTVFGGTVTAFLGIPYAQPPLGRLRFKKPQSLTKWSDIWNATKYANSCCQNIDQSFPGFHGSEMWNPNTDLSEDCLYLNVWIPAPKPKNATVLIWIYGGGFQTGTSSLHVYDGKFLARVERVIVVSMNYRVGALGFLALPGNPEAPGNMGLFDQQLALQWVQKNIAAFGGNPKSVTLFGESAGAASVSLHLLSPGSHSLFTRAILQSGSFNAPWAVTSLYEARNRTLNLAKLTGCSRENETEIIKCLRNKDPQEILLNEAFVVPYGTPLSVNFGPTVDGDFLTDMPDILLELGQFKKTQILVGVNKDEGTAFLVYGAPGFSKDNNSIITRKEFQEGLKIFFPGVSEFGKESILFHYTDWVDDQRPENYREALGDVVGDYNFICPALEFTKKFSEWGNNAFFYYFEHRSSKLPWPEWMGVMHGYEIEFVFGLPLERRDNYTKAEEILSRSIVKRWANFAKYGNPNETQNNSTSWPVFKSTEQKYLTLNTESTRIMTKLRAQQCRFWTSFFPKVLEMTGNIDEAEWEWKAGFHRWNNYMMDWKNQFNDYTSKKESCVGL

## COc1cccc(CN(C)CCCCCCCOc2ccc3c(=O)c4ccccc4oc3c2)c1
Acetylcholinesterase
  IC50: 40 µM
Cholinesterase
  IC50: 1.85 µM
Homo sapiens [1]
  Ratio IC50: 0.05
Homo sapiens [2]
  Ratio IC50: 21.6

## COc1ccccc1CN(C)CCCCCCCOc1ccc2c(=O)c3ccccc3oc2c1
Acetylcholinesterase
  IC50: 2.18 µM
Cholinesterase
  IC50: 0.93 µM
Homo sapiens [1]
  Ratio IC50: 0.43
Homo sapiens [2]
  Ratio IC50: 2.34

## CN(CCCCCCOc1ccc2c(=O)c3ccccc3oc2c1)Cc1ccccc1
Acetylcholinesterase
  IC50: 2.89 µM
Cholinesterase
  IC50: 1.43 µM
Homo sapiens [1]
  Ratio IC50: 0.49
Homo sapiens [2]
  Ratio IC50: 2.02

## CN(CCCCCCCCCCOc1ccc2c(=O)c3ccccc3oc2c1)Cc1ccccc1
Homo sapiens [2]
  Ratio IC50: 3880

## CN(CCCCCOc1ccc2c(=O)c3ccccc3oc2c1)Cc1ccccc1
Acetylcholinesterase
  IC50: 7.78 µM
Cholinesterase
  IC50: 2.49 µM
Homo sapiens [1]
  Ratio IC50: 0.32
Homo sapiens [2]
  Ratio IC50: 3.12

## CN(CCCCOc1ccc2c(=O)c3ccccc3oc2c1)Cc1ccccc1
Acetylcholinesterase
  IC50: 6.25 µM
Cholinesterase
  IC50: 2.65 µM
Homo sapiens [1]
  Ratio IC50: 0.42
Homo sapiens [2]
  Ratio IC50: 2.36

## COc1ccc(OC)c(CN(C)CCCCCCCOc2ccc3c(=O)c4ccccc4oc3c2)c1
Acetylcholinesterase
  IC50: 127 µM
Cholinesterase
  IC50: 1.27 µM
Homo sapiens [1]
  Ratio IC50: 0.01
Homo sapiens [2]
  Ratio IC50: 100

## CN(CCCCCCCCCOc1ccc2c(=O)c3ccccc3oc2c1)Cc1ccccc1
Homo sapiens [2]
  Ratio IC50: 1520

## CN(CCCOc1ccc2c(=O)c3ccccc3oc2c1)Cc1ccccc1
Acetylcholinesterase
  IC50: 2.68 µM
Cholinesterase
  IC50: 8.33 µM
Homo sapiens [1]
  Ratio IC50: 3.11
Homo sapiens [2]
  Ratio IC50: 0.32

## Cc1ccccc1CN(C)CCCCCCCOc1ccc2c(=O)c3ccccc3oc2c1
Acetylcholinesterase
  IC50: 565 µM
Cholinesterase
  IC50: 29.5 µM
Homo sapiens [1]
  Ratio IC50: 0.05
Homo sapiens [2]
  Ratio IC50: 19.1

## CN(CCCCCCCOc1ccc2c(=O)c3ccccc3oc2c1)Cc1ccccc1
Acetylcholinesterase
  IC50: 2.82 µM
Cholinesterase
  IC50: 0.8 µM
Homo sapiens [1]
  Ratio IC50: 0.28
Homo sapiens [2]
  Ratio IC50: 3.52

## COc1ccc(CN(C)CCCCCCCOc2ccc3c(=O)c4ccccc4oc3c2)c(OC)c1OC
Acetylcholinesterase
  IC50: 155 µM
Cholinesterase
  IC50: 1 µM
Homo sapiens [1]
  Ratio IC50: 0.006
Homo sapiens [2]
  Ratio IC50: 155

## COc1cccc(CN(C)CCCCCCCOc2ccc3c(=O)c4ccccc4oc3c2)c1OC
Acetylcholinesterase
  IC50: 138 µM
Cholinesterase
  IC50: 2.01 µM
Homo sapiens [1]
  Ratio IC50: 0.014
Homo sapiens [2]
  Ratio IC50: 68.7

## CNC(=O)Oc1cccc(CN(C)CCCCCCCOc2ccc3c(=O)c4ccccc4oc3c2)c1
Homo sapiens [1]
  Ratio IC50: 51.6
Homo sapiens [2]
  Ratio IC50: 0.019

## CN(CCCCCCCOc1ccc2c(=O)c3ccccc3oc2c1)Cc1ccccc1Cl
Acetylcholinesterase
  IC50: 433 µM
Cholinesterase
  IC50: 269 µM
Homo sapiens [1]
  Ratio IC50: 0.62
Homo sapiens [2]
  Ratio IC50: 1.6

## CCN(CCCCCCCOc1ccc2c(=O)c3ccccc3oc2c1)Cc1ccccc1OC
Acetylcholinesterase
  IC50: 3.15 µM
Cholinesterase
  IC50: 0.32 µM
Homo sapiens [1]
  Ratio IC50: 0.1
Homo sapiens [2]
  Ratio IC50: 9.8

## COc1cc2oc3cc(OCCCCCCCN(C)Cc4ccccc4)ccc3c(=O)c2cc1OC
Acetylcholinesterase
  IC50: 2.32 µM
Cholinesterase
  IC50: 3.08 µM
Homo sapiens [1]
  Ratio IC50: 1.33
Homo sapiens [2]
  Ratio IC50: 0.75

## CN(CCCCCCCCCCCOc1ccc2c(=O)c3ccccc3oc2c1)Cc1ccccc1
Homo sapiens [2]
  Ratio IC50: 5220

## CN(CCCCCCCCOc1ccc2c(=O)c3ccccc3oc2c1)Cc1ccccc1
Acetylcholinesterase
  IC50: 10.3 µM
Cholinesterase
  IC50: 0.08 µM
Homo sapiens [1]
  Ratio IC50: 0.008
Homo sapiens [2]
  Ratio IC50: 129

## CN(CCCCCCCOc1ccc2c(=O)c3ccccc3oc2c1)Cc1ccc(Cl)cc1
Acetylcholinesterase
  IC50: 1050 µM
Cholinesterase
  IC50: 127 µM
Homo sapiens [1]
  Ratio IC50: 0.12
Homo sapiens [2]
  Ratio IC50: 8.26

## CN(CCCCCCCOc1ccc2c(=O)c3ccccc3oc2c1)Cc1cccc(Cl)c1
Acetylcholinesterase
  IC50: 594 µM
Cholinesterase
  IC50: 63.8 µM
Homo sapiens [1]
  Ratio IC50: 0.1
Homo sapiens [2]
  Ratio IC50: 9.3

## COc1ccc2c(=O)c3ccc(OCCCCCCCN(C)Cc4ccccc4)cc3oc2c1
Acetylcholinesterase
  IC50: 7.84 µM
Cholinesterase
  IC50: 46.1 µM
Homo sapiens [1]
  Ratio IC50: 5.9
Homo sapiens [2]
  Ratio IC50: 0.17

## CN(CCCCCCCOc1ccc2c(=O)c3ccccc3oc2c1)Cc1ccccc1[N+](=O)[O-]
Acetylcholinesterase
  IC50: 413 µM
Cholinesterase
  IC50: 14 µM
Homo sapiens [1]
  Ratio IC50: 0.03
Homo sapiens [2]
  Ratio IC50: 29.5

## COc1ccc(CN(C)CCCCCCCOc2ccc3c(=O)c4ccccc4oc3c2)cc1
Acetylcholinesterase
  IC50: 360 µM
Cholinesterase
  IC50: 2.11 µM
Homo sapiens [1]
  Ratio IC50: 0.006
Homo sapiens [2]
  Ratio IC50: 171

## COc1ccccc1CN(C)CCCOc1ccc2c(=O)c3ccccc3oc2c1
Acetylcholinesterase
  IC50: 3.4 µM
Cholinesterase
  IC50: 1.91 µM
Homo sapiens [1]
  Ratio IC50: 0.56
Homo sapiens [2]
  Ratio IC50: 1.78

## CN(CCCCCCCCCCCCOc1ccc2c(=O)c3ccccc3oc2c1)Cc1ccccc1
Homo sapiens [2]
  Ratio IC50: 6050
